Test results published in ChEMBL document CHEMBL5465560, “Selectivity Literature for EUbOPEN Chemogenomic Library” (2024).
One block for each compound: values may come before it.

Columns and labels:
[1] = target: T1, Histone-lysine N-methyltransferase SMYD3 (Homo sapiens) (UniProt Q9H7B4); assay: Selectivity interaction (Methyltransferase screen (radiometric assays, panel of 8 PRMTs, 21 protein lysine methyltransferases, 3 DNA methyltransferases, and one RNA methyltransferase)) EUB0000271b SMYD3
T1 sequence (whole entry): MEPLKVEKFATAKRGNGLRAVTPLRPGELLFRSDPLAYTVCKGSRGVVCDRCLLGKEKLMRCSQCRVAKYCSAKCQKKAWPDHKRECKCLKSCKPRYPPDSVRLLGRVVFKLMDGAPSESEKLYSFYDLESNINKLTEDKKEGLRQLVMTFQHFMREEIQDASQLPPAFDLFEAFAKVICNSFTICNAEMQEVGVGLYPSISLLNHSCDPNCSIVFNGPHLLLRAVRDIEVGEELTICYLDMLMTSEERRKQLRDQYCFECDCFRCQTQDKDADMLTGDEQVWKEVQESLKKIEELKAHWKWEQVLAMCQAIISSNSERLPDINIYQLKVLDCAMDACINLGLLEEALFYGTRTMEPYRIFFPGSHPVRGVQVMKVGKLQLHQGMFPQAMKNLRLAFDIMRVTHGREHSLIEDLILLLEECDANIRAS

[2] = target: Serine/threonine-protein kinase PAK 3 (Homo sapiens) (UniProt O75914); details: at 10 µM
Chain of Serine/threonine-protein kinase PAK 3 (Homo sapiens) (O75914 whole entry, looked up): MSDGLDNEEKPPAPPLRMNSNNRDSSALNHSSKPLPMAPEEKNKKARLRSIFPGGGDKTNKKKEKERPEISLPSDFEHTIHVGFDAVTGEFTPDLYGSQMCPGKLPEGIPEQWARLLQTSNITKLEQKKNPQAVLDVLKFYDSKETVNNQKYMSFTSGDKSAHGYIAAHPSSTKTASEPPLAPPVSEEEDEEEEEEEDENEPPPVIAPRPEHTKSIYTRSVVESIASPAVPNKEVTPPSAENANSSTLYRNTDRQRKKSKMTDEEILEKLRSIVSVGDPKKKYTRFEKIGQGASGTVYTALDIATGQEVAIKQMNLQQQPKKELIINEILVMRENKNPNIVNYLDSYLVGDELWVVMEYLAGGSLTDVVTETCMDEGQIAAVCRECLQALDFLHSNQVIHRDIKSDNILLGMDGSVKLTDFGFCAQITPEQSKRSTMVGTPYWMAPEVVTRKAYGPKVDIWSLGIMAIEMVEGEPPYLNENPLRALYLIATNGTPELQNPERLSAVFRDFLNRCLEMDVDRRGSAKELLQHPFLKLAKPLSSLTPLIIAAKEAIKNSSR

[3] = target: T2, Serine/threonine-protein kinase RIO1 (Homo sapiens) (UniProt Q9BRS2); details: at 10 µM
T2 sequence (whole entry): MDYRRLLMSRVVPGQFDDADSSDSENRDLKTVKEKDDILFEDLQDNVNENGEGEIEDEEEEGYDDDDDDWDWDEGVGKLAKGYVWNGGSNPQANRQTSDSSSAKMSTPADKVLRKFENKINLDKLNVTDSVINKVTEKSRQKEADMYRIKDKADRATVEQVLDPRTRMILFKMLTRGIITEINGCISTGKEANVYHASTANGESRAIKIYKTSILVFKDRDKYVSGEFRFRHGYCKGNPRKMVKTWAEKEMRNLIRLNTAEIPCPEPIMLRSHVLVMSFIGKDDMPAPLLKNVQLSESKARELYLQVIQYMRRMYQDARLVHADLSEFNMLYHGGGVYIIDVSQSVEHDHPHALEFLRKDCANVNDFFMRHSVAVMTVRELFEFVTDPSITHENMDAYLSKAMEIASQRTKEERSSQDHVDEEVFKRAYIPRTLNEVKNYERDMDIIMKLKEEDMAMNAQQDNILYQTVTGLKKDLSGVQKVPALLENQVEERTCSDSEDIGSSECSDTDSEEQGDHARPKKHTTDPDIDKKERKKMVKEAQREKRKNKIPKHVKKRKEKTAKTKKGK

[4] = target: Mast/stem cell growth factor receptor Kit (Homo sapiens, UniProt P10721); assay: Selectivity interaction (KinomeScan (DiscoverX)) EUB0001079a KIT; details: at 1 µM
Chain of Mast/stem cell growth factor receptor Kit (P10721 whole entry, canonical isoform): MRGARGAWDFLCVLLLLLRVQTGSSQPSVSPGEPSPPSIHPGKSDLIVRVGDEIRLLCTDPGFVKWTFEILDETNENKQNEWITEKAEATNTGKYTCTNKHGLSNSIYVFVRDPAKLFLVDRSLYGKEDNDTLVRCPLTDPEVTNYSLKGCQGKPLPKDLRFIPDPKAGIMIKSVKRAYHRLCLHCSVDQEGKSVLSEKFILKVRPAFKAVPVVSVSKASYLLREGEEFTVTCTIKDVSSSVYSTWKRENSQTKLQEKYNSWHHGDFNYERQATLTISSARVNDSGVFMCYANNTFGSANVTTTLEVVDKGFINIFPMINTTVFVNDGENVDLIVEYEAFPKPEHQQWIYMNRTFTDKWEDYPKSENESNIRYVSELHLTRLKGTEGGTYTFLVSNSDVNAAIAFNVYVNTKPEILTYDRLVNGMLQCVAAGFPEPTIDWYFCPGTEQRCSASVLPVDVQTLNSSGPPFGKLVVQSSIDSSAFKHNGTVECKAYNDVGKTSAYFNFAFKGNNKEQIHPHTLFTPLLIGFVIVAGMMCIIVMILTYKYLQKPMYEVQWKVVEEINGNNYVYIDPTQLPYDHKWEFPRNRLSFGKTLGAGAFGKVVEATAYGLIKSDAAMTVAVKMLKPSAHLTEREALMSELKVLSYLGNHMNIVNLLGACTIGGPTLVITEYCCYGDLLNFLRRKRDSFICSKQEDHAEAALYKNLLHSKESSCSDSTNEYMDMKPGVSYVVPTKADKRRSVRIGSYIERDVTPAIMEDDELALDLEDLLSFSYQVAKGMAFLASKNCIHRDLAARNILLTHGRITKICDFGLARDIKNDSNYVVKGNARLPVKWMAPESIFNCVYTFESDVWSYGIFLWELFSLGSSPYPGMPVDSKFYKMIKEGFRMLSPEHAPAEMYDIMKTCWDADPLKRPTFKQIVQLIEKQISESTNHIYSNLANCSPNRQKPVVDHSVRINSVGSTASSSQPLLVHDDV

[5] = target: Casein kinase I isoform alpha (Homo sapiens, UniProt P48729); assay: Selectivity interaction (KinomeScan (DiscoverX)) EUB0000595a CSNK1A1; details: at 10 µM
Chain of Casein kinase I isoform alpha (P48729 2-337 limits assumed): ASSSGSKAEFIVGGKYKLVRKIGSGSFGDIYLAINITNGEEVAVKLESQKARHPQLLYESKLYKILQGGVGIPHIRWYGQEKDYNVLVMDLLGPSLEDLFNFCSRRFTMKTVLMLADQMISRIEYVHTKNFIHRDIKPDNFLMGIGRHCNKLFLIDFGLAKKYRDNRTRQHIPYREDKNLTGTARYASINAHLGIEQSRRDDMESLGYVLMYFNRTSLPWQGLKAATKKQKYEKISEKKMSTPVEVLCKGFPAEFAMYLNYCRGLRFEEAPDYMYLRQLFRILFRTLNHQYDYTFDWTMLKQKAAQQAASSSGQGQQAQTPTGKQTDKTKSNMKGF

[6] = target: T3, TGF-beta receptor type-1 (Homo sapiens) (UniProt P36897); details: at 10 µM
T3 sequence (whole entry): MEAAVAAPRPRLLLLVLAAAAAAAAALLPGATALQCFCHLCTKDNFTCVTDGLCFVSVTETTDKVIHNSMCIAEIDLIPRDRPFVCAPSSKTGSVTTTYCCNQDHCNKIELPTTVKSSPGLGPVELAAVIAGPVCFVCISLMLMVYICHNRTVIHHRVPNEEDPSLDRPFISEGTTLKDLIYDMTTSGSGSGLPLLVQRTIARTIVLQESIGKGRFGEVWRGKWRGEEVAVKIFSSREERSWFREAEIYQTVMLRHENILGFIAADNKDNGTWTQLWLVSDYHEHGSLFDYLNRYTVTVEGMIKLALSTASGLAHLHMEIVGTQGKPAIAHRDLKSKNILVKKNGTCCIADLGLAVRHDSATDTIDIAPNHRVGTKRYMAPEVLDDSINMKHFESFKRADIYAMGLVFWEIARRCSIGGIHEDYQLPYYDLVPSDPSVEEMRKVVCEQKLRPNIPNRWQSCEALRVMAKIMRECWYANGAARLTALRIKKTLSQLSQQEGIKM

[7] = target: T4, Mitogen-activated protein kinase kinase kinase 2 (Homo sapiens) (UniProt Q9Y2U5); assay: Selectivity interaction (KinomeScan (DiscoverX)) EUB0000666a MAP3K2; details: at 10 µM
T4 sequence (whole entry): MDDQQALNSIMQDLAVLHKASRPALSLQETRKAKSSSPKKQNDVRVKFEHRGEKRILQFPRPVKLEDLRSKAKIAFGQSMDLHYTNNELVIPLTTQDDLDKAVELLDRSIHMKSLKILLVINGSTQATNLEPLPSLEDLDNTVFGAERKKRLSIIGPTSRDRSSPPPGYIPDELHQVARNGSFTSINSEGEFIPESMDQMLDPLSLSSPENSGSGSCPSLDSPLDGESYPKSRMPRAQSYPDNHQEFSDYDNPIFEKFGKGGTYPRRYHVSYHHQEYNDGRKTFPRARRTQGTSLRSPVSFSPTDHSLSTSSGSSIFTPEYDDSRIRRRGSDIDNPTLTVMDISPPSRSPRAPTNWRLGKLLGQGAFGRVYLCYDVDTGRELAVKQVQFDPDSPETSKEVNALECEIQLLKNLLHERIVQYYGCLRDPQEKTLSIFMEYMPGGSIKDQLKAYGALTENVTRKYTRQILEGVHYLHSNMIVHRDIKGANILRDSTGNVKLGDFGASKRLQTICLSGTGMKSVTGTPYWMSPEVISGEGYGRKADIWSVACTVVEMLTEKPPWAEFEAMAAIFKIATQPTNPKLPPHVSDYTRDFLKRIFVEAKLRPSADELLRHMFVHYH

[8] = target: Serine/threonine-protein kinase SIK2 (Homo sapiens) (UniProt Q9H0K1); assay: Selectivity interaction (KinomeScan (DiscoverX)) EUB0000092b SIK2; details: at 10 µM
Chain of Serine/threonine-protein kinase SIK2 (Homo sapiens) (Q9H0K1 whole entry, looked up): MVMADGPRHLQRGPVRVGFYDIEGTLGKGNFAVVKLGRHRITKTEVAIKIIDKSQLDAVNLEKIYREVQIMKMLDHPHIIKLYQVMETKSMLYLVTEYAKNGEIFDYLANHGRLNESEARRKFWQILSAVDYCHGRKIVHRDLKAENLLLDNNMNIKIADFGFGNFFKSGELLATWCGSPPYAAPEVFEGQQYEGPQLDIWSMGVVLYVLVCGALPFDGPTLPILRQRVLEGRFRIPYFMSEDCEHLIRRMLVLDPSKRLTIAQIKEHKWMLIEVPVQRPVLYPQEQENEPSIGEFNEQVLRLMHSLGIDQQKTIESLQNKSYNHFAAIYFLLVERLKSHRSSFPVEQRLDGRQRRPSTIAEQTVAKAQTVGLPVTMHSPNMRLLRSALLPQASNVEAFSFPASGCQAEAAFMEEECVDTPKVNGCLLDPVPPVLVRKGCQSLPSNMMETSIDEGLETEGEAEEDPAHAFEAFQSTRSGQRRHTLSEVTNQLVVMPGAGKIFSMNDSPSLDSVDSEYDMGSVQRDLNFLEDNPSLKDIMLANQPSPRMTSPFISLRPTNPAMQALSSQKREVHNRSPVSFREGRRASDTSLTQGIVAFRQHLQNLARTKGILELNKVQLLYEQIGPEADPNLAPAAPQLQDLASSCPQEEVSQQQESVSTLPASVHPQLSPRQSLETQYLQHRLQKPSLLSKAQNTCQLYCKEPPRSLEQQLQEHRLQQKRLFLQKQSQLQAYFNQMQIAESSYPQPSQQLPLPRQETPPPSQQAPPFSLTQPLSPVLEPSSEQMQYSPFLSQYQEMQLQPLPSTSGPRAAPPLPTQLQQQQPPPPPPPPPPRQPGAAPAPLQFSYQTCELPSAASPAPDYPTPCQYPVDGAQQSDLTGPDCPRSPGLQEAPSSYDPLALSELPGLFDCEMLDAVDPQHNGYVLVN

Structure (SMILES): Cc1cc(C)cc([C@@H]2c3cc(C)ccc3NC(=O)CN2C(=O)c2ccc(Br)s2)c1
% of activity ([1]; at 1 µM): 100% | % of activity ([1]; at 10 µM): 98.3%

% of control [2]: 100% | % of control [3]: 100%
Structure (SMILES): CCN(CC)CCCCNc1ncc2cc(-c3cc(OC)cc(OC)c3)c(NC(=O)NC(C)(C)C)nc2n1

Structure (SMILES): Nc1cnc(N2CCc3cc(S(=O)(=O)Nc4c(F)cc(Cl)cc4F)cc(N4CCCC4=O)c32)nc1 [TP-020n]
% of control [4]: 100%

Structure (SMILES): COCC(=O)NC/C=C/c1ccc2ncnc(Nc3ccc(Oc4ccc(C)nc4)c(C)c3)c2c1 [CP-724714]
% of control [5]: 100%

Structure (SMILES): Cc1cc([C@@H](C)Nc2ccccc2C(=O)O)c2nc(N3CCOCC3)cc(=O)n2c1 [AZD-6482]
% of control [6]: 100%

Structure (SMILES): O=C(NOC[C@H](O)CO)c1ccc(F)c(F)c1Nc1ccc(I)cc1F
% of control [7]: 100%

Structure (SMILES): CCC(=O)N1CCN(c2ccc(-n3c(=O)ccc4cnc5ccc(-c6cnc7ccccc7c6)cc5c43)cc2C(F)(F)F)CC1
% of control [8]: 23%
